The target in the first experiment is T1, Z A1AT (Homo sapiens, UniProt P01009, E366K).
T1 construct: expressed in transfected cells; host or cells: HEK-Z cells (human embryonic kidney cell line)
T1 sequence (P01009 25-418 E366K): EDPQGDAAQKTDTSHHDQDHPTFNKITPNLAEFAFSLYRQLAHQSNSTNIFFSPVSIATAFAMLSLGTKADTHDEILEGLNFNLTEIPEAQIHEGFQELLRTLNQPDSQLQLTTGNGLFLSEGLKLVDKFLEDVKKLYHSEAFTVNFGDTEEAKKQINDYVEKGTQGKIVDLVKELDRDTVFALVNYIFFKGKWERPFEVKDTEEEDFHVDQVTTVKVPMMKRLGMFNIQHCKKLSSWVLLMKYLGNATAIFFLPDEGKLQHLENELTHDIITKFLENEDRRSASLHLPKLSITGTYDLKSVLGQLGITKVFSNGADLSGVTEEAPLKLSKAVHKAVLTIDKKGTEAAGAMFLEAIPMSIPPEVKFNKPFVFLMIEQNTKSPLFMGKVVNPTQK
Briefly: A1AT cell secretion assay using HEK-Z cells (A1AT ELISA of supernatants). Format: cell-based. As to conditions: 48 h, read-out: Median A1AT % increase over vehicle at 300 nM. Here is the method: HEK-Z cells, a human embryonic kidney cell line stably transfected with the human Z A1AT gene, were plated into 96 well plates (3.0×10^5 cells/ml with 200 μl of media/well) overnight at 37° C. in a humidified atmosphere containing 5% CO2. Following incubation cells were washed with 200 μl serum-free media three times and media was replaced with treatments in quadruplicate using serum free media containing either vehicle, 10 μM suberanilohydroxamic acid (SAHA) or a compound of the invention ([…]) for 48 h in a 37° C. incubator in a final volume of 200 μl. At the end of the incubation step the supernatants were removed from the wells, centrifuged at 1000×g at 4° C. for 10 min and were assayed for human A1AT levels by ELISA (Human Serpin A1/α1-antitrypsin duo set ELISA, R& D Systems, DY1268) per manufacturer's instructions.
Briefly, a 96 well plate was coated with human A1AT capture antibody overnight at room temperature (1:180 dilution from stock, 100 μl final volume/well). The capture antibody was then removed and wells washed three times with 300 μl wash buffer (0.05% Tween 20 in PBS) and then 200 μl reagent diluent ([…]) was incubated in each well for 1 h at room temperature. Diluted samples, standards (125, 250, 500, 1000, 2000, 4000 and 8000 pg/ml A1AT) or blanks were then added to each well in duplicate and the plates were covered with a plate sealer and left at room temperature for 2 h. At the end of the sample incubation step, samples were removed and all wells washed as previously and 100 μl detection antibody (1:180 dilution from stock) was added to each well and incubated for a further 2 h at room temperature. Following incubation with detection antibody, supernatant was removed and wells were washed as previously and 100 μl streptavidin-HRP solution (1:200 dilution from stock) was added to each well for 20 min in the dark. After which, 50 μl stop solution (2M H2SO4) was added and optical density (OD) of each well was read at 450 nm with 570 nm blank subtracted from each well using a microplate reader. A 4 parameter logistic curve was constructed using GraphPad Prism 7 and A1AT concentrations were determined in each sample by interpolation from a standard curve and multiplying by the appropriate dilution factor.
For `CNC(=O)c1ccc(Cn2cnc3ccccc3c2=O)cc1` [Example 5, N-Methyl-4-((4-oxoquinazolin-3(4H)-yl)methyl)benzamide], the activation at 0.3 µM was 180%. As for `CC(C)N(C)C(=O)c1ccc(Cn2cnc3ccccc3c2=O)cc1` [Example 15, N-isopropyl-N-methyl-4-((4-oxoquinazolin-3(4H)-yl)methyl)benzamide], the activation at 0.3 µM was found to be 190%.

Regarding `CN(Cc1ccccc1)C(=O)c1ccc(Cn2cnc3ccccc3c2=O)cc1` [Example 16, N-benzyl-N-methyl-4-((4-oxoquinazolin-3(4H)-yl)methyl)benzamide], the activation at 0.3 µM was 160%. Same read-out and setting: with `CN(CC(F)(F)F)C(=O)c1ccc(Cn2cnc3ccccc3c2=O)cc1` [Example 17, N-methyl-4-((4-oxoquinazolin-3(4H)-yl)methyl)-N-(2,2,2-trifluoroethyl)benzamide] the figure was 170%.

The same experiment, now with this note: HEK-Z cells, 300 nM, 48 h, secreted human A1AT in supernatant by ELISA; read-out: Median A1AT % increase over vehicle at 300 nM.
As for `CCN(C)C(=O)c1ccc(Cn2cnccc2=O)cc1` [Example 1, N-Ethyl-N-methyl-4-((6-oxopyrimidin-1(6H)-yl)methyl)benzamide], the activation at 0.3 µM was found to be 330%. Consider `O=C(c1ccc(Cn2cnccc2=O)cc1)N1CCCC1` [Example 2, 3-(4-(Pyrrolidine-1-carbonyl)benzyl)pyrimidin-4(3H)-one], for which the activation at 0.3 µM amounted to 350%. For `O=C(c1ccc(Cn2cnccc2=O)cc1)N1CCOCC1` [Example 3, 3-(4-(Morpholine-4-carbonyl)benzyl)pyrimidin-4(3H)-one], the activation at 0.3 µM was 280%.

For the molecule `CN1CCN(C(=O)c2ccc(Cn3cnccc3=O)cc2)CC1` [Example 4, 3-(4-(4-Methylpiperazine-1-carbonyl)benzyl)pyrimidin-4(3H)-one], the activation at 0.3 µM worked out at 390%.

Consider `CNC(=O)c1ccc(Cn2cnc3ccc(Cl)cc3c2=O)cc1` [Example 6, 4-((6-chloro-4-oxoquinazolin-3(4H)-yl)methyl)-N-methylbenzamide], for which the activation at 0.3 µM worked out at 200%. Turning to `CC(C)N(C)C(=O)c1ccc(Cn2cnccc2=O)cc1` [Example 7, N-isopropyl-N-methyl-4-((6-oxopyrimidin-1(6H)-yl)methyl)benzamide], the activation at 0.3 µM turned out to be 160%. On to `CN(Cc1ccccc1)C(=O)c1ccc(Cn2cnccc2=O)cc1` [Example 8, N-benzyl-N-methyl-4-((6-oxopyrimidin-1(6H)-yl)methyl)benzamide], for which the activation at 0.3 µM turned out to be 150%. For `CN(CC(F)(F)F)C(=O)c1ccc(Cn2cnccc2=O)cc1` [Example 9, N-methyl-4-((6-oxopyrimidin-1(6H)-yl)methyl)-N-(2,2,2-trifluoroethyl)benzamide], the activation at 0.3 µM stood at 170%.

Turning to `NC(=O)c1ccc(Cn2cnccc2=O)cc1` [Example 10, 4-((6-oxopyrimidin-1(6H)-yl)methyl)benzamide], the activation at 0.3 µM is 260%. Same read-out and setting: with `CCN(CC)C(=O)c1ccc(Cn2cnccc2=O)cc1` [Example 11, N,N-diethyl-4-((6-oxopyrimidin-1(6H)-yl)methyl)benzamide] the figure was 230%.

With `CC(C)NC(=O)c1ccc(Cn2cnccc2=O)cc1` [Example 12, N-isopropyl-4-((6-oxopyrimidin-1(6H)-yl)methyl)benzamide], the activation at 0.3 µM stood at 210%. The same measure, in the same setting: under `O=C(NCc1ccc(F)cc1)c1ccc(Cn2cnccc2=O)cc1` [Example 13, N-(4-fluorobenzyl)-4-((6-oxopyrimidin-1(6H)-yl)methyl)benzamide] stands 190%; under `O=C(NCC(F)(F)F)c1ccc(Cn2cnccc2=O)cc1` [Example 14, 4-((6-oxopyrimidin-1(6H)-yl)methyl)-N-(2,2,2-trifluoroethyl)benzamide], 180%. Still for that read-out and setting: with `Cc1ncn(Cc2ccc(C(=O)N(C)C)cc2)c(=O)c1C` [Example 18, 4-((4,5-dimethyl-6-oxopyrimidin-1(6H)-yl)methyl)-N,N-dimethylbenzamide] the figure was 170%.
